Results published in patent US20230248660A1 (Intelgenx Corp., priority 2016, published 2023).

How the values were obtained:
[1] = system: Porcine buccal mucosa; assay: Loxapine diffusion through Porcine buccal mucosa (Franz cell); conditions: penetration enhancer in loxapine oral film, permeation through the mucosa
Procedure: FIG. 1 graphically depicts 1 oxapine film diffusion through Porcine buccal mucosa (48-hrs-old unfrozen fresh mucosa) (Franz cell 1.76 cm2; 37° C.); saliva pH 6.8.
FIG. 2 graphically depicts 1 oxapine film diffusion through Porcine buccal mucosa (26-hrs-old unfrozen fresh mucosa) (Franz cell 1.76 cm2; 37° C.); saliva pH 6.8.
FIG. 3 graphically depicts 1 oxapine Solutions-diffusion through Porcine buccal mucosa (fresh mucosa kept at 4C for 48 hours) (Franz cell 1.76 cm2; 37° C.); saliva pH 6.8.
These penetration enhancers include sulphoxides (dimethylsulphoxide, decylmethyl sulfoxide), azones (laurocapram), pyrrolidones (2pyrrolidone, 2P), alcohols/alkanols (ethanol or decanol), glycols (propylene glycol), surfactants (anionic, sodium lauryl sulfate, sodium decyl sulfate), (Nonionic, Tween, PLE), (Cationic, chitosan, cetylpyridinium chloride), terpenes (1,8-cineole, menthol, and menthone, D-limonene), fatty acids (oleic acid, sodium caprate), and bile salts (sodium deoxycholate, sodium deoxyglycocholate).

[2] = at or near neutral pH; cited from earlier work

Compound	Effect on loxapine absorption/permeation [1]	other results
C=C(C)[C@@H]1CC=C(C)CC1 [(S)-(−)-Limonene]	positif effect (+)	–
CCCCCCCCCCCCCCCC[n+]1ccccc1 [Cetylpyridinium chloride]	no effect	–
O=C(O)CN(CCN(CC(=O)O)CC(=O)O)CC(=O)O.[Ca].[Na].[Na] [Ethylenediaminetetraacetic acid calcium disodium]	no effect	–
CCCCCCCCCCCCOS(=O)(=O)[O-].[Na+] [Sodium lauryl sulphate (SLS), Sodium lauryl sulphate]	–	Effect on loxapine absorption/permeation ([1]; listed as SLS, sulphate): reduce absorption/permeation; Effect on loxapine absorption/permeation ([1]; sulphate): negative effect(−)
CN1CCN(C2=Nc3ccccc3Oc3ccc(Cl)cc32)CC1 [loxapine, 2-chloro-11-(4-methylpiperazin-1-yl) dibenzo[b,f] [1,4] loxazepine]	–	solubility of loxapine [2]: especially low
Sodium deoxycholate	positif effect (+)	–
